Measurements: patent US20250206704A1, “ENGINEERED IONOPHORES FOR TRANSPORT OF METAL IONS” (The Brigham and Women's Hospital, Inc., priority 2022, published 2025)

Legend:
[1] = UV/Vis titration, stability constant (logK) with ZnCl2; type: physicochemical; conditions: UV/Vis titration with ZnCl2, TitrationFit
Description: Applicants validated the design principles by confirming that the silyl group lowered the binding affinity and shielded the hydrophilic pocket. […] [17] […] Applicants confirmed that all compounds bound Zn^II with 1:1 stoichiometry (FIG. 12). […] Applicants superimposed the X-ray structure of the TIPS-containing Zn^II:9 complex with the literature precedented Zn^II:1 and observed significant structural distortion in the Zn^II:9 complex, which could explain the lower logK.
A solution of ligand was prepared in acetonitrile. The starting concentration was chosen to be around 0.10 mM, based on the absorption maximum of the compound. This solution (2.5 mL) was pipetted into a quartz cuvette with a 1-cm optical path length. The titration was performed by the stepwise addition of a 10-mM ZnC12 solution in acetonitrile. The absorption spectra were measured over the range of 250-800 nm. The calculation of the stability constants was accomplished using TitrationFit.1

U2OS cells = assay: ICP-MS analysis of intracellular Zn(II) in U2OS cells; type: cell-based; conditions: 10 μM Zn(II) and 5 μM compound, 1 hour
Procedure: Next, Applicants used inductively coupled plasma mass spectrometry (ICP-MS) to validate the imaging assay and the ionophores activity (FIG. 1F). While the intracellular Zn^II levels where similar between DMSO and chelator 1, Zn^II concentrations inside cells were 3-fold higher when Applicants co-treated ionophores 8 and 9.
U2OS cells (˜200,000) were plated in a 6-well dish. After a day, the medium was aspirated, and Zn(II) (10 μM) and compounds (5 μM) containing media (2 mL) were added to each appropriate well. Cells were harvested by first washing each well with PBS containing EDTA (100 μM, 2×2.0 mL) and subsequently adding Milli-Q water ([…] to each well and incubating for 2-4 min. A portion of the resulting cell lysate (900 μL) was collected and transferred to an Eppendorf Safe-Lock tube, snap-frozen in N2(l), and then thawed at room temperature (RT) for a total of three freeze-thaw cycles. The insoluble lysate was pelleted (10 min at 10,000 g), and the soluble protein concentration of each sample was determined using the Pierce 660 nm Protein Assay in a 96-well plate (200 μL of reagent, 14 μL of sample, bovine serum albumin standard curve). Samples were then frozen and lyophilized overnight, and the resulting white, flaky solid was taken up in concentrated nitric acid (200 μL, ultrapure for trace metal analysis, BDH Aristar) and heated at 70° C. for 1 h. A portion of each sample (142 μL) was then diluted with water (2 mL) and a terbium internal standard (Agilent 5190-8590; stock at 10,000 parts per billion [ppb] in 10% nitric acid diluted to 100 ppb in Milli-Q water for addition to samples, 2 ppb final concentration), after which the metal content of the samples was assessed by ICP-MS. […] Therefore, 1 ppb was taken to be equal to 1 μg/L, and the molarity of a particular solution was considered equal to the measured concentration of a particular ion in ppb, divided by the molecular weight of the ion, multiplied by 10-6.

[2] = Co-incubation kinetic study of ligand exchange with DA-ZP1 in presence of compound and Zn(II); type: physicochemical; conditions: 10 μM compound with 10 μM Zn^II, then 5 μM DA-ZP1
Procedure: The compound in phosphate-buffered saline (PBS) was added to a 96-well microplate (250 μL, 10 μM per well, Nunc 96-well plates) and incubated with 10 μM of ZnCl2. […] Reaction kinetics were monitored by measuring the fluorescence of the activated fluorescein dye (λex=490 nm, λem=522 nm) over 2 h.

Structure (SMILES): CC(C)(C)[Si](C)(C)c1cccc(CN(Cc2ccccn2)Cc2ccccn2)c1O [Compound 8, 2-((bis(pyridin-2-ylmethyl)amino)methyl)-6-(tert-butyldimethylsilyl)phenol]
- logK (Zn^II binding) [1]: 7.5
- intracellular Zn^II level relative to DMSO (U2OS cells): 3 fold

Structure (SMILES): CC(C)[Si](c1cccc(CN(Cc2ccccn2)Cc2ccccn2)c1O)(C(C)C)C(C)C [Compound 9, 2-((bis(pyridin-2-ylmethyl)amino)methyl)-6-(triisopropylsilyl)phenol]
- logK (Zn^II binding) [1]: 6.9
- intracellular Zn^II level relative to DMSO (U2OS cells): 3 fold
- ligand exchange with DA-ZP1 (fluorescence increase) [2]: rapid increase in fluorescence
